According to US12496355B2, “Method for treating a cancer and/or cancer metastasis” (NANO TARGETING & THERAPY BIOPHARMA INC., priority 2022, dated 2025):
“Also recorded” adds a separate entry of the source.

Assays:
[1] = test system: tumor angiogenesis on chicken embryo chorioallantoic membrane; test: Chorioallantoic membrane (CAM) tumor model for angiogenesis; type: in vivo; details: administered on day 12, observed on days 14 and 16
Description: To evaluate the effect of MSNs on tumor angiogenesis, chicken embryo chorioallantoic membrane (CAM) tumor model was used. The fertilized eggs were incubated in the incubator for 10 days, then a small window was opened in the eggshell and the cancer cells were implanted on the CAM membrane near the aorta. MSN or Doxorubicin (DOX) was administered on day 12 when the tumor was formed and the angiogenesis near the tumor was observed on days 14 and 16.

[2] = test system: luciferase-expressing HCT-116 cells; test: Orthotopic colorectal cancer metastasis model, cells injected into cecum wall; details: 40 mg/kg twice per week, 8 administrations
Description: 2×10^6 luciferase-expressing HCT-116 cells were directly injected into the wall of the cecum with surgery to establish the orthotopic colorectal cancer metastasis model, this model spontaneously produces highly metastatic tumors in adjacent intestinal tissues, peritoneum, and distance metastasis (spleen, kidney, liver, and diaphragm). […] The tumor growth and metastasis were observed by the IVIS system once a week and body weight was observed over the study period. To assess overall survival, animals were monitored up to the point of spontaneous death or approaching moribund status.

With `COc1cccc2c1C(=O)c1c(O)c3c(c(O)c1C2=O)C[C@@](O)(C(=O)CO)C[C@@H]3O[C@H]1C[C@H](N)[C@H](O)[C@H](C)O1` [DOX, Doxorubicin] the “blood vessels near the tumor (angiogenesis)” value [1] was “blood vessels exhibited disintegration and decreased density”.
With `CCc1c2c(nc3ccc(OC(=O)N4CCC(N5CCCCC5)CC4)cc13)-c1cc3c(c(=O)n1C2)COC(=O)[C@]3(O)CC` [IRI, irinotecan] the “primary tumor growth and metastases (IVIS bioluminescence)” value [2] was “slower tumor growth rate compared to the control group; also recorded: inefficient inhibition of tumor growth and metastases”.
